In publication PMC9704104, “Towards safer anti-inflammatory therapy: synthesis of new thymol–pyrazole hybrids as dual COX-2/5-LOX inhibitors” (Journal of Enzyme Inhibition and Medicinal Chemistry, 2022):
Values joined by “and” are separate entries in the source; they are usually repeats but may differ in a detail not shown here. Equal entries are not always repeated. “Also recorded” adds a separate entry of the source.

What was measured:
COX-1 = target: T1, COX-1 (Ovis aries, UniProt P05979); experiment: In vitro COX-1 inhibitory assay (Cayman colorimetric COX (ovine) inhibitor screening assay kit); assay type: biochemical; conditions: mean of three replicates ± SD
T1 construct: purchased Cayman chemicals 560131
T1 sequence (P05979 25-600): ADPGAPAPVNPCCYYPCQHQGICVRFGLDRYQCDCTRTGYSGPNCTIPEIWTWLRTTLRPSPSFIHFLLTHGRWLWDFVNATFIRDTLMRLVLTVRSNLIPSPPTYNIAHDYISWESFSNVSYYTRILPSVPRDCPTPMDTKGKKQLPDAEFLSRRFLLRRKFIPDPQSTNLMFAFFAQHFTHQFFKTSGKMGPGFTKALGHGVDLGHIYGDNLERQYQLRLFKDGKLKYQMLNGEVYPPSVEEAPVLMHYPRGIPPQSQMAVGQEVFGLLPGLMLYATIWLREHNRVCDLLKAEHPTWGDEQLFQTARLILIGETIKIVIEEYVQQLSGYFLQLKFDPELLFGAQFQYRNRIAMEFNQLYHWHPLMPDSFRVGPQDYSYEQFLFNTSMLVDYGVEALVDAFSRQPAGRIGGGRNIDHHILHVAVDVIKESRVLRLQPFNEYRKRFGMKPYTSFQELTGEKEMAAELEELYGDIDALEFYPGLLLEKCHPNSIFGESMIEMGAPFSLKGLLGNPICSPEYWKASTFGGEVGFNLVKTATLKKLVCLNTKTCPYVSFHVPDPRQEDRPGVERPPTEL
Experimental: (Page: S20, Supplementary file).
Anti-inflammatory activity
In vitro COX-1 and COX-2 inhibitory assay […]
supplied by Cayman chemicals, Ann Arbor, MI, USA according to reported method 1. The colorimetric COX inhibitor screening assay utilizes the peroxidase component of cyclooxygenase. The peroxidase activity was assayed calorimetrically by monitoring the appearance of oxidized N,N,N',N'-tetramethyl-1,4-phenylenediamine (TMPD) at 590nm. The appearance of reagent was carried out following the instructions […]
The half- maximal inhibitor concentrations (IC50µM) were determined and the selectivity index (SI) values were calculated as IC50 (COX-1)/IC50 (COX-2).
1) Background wells- 160 µL of assay buffer and 10 µL of heme were added to background wells.
2) The 100% Initial activity wells- 150 µL of assay buffer, 10 µL of heme and 10 µL of enzyme (COX-1 or COX-2) were added.
3) Inhibitor well- 150 µL of assay buffer, 10 µL of heme and 10 µL of enzyme were added.
4) 10 µL of inhibitor (3 concentrations) in DMSO was added to the inhibitor wells to yield a final […]
5) 10 µL of solvent (DMSO) was added to the 100% Initial activity wells and background wells.
7) 20 µL of colorimetric substrate solution (TMPD) was added to all wells.
8) 20 µL of arachidonic acid was added to all wells to yield a final concentration of 100 µM.
10) The absorbance was measured at 590 nm using a plate reader.
The calculations were carried out in the following manner:
1) The average absorbance of all samples was determined.
2) The absorbance of background wells was subtracted from absorbance of the 100% Initial activity […]
3) Percent inhibition = (100% Initial activity – Inhibitor wells/ 100% Initial activity)∗ 100 […]
Place the 96-well plate on a shaker for at least five minutes. […]

5-LOX = experiment: In vitro 5-LOX inhibitory assay (Abnova 5-LOX inhibitor screening assay kit); assay type: biochemical
Description: The newly synthesised compounds were screened for their ability to inhibit 5-LOX enzymes. […] (Page: S21, Supplementary file). […]
In vitro LOX inhibitory assay
Inhibitor Screening Assay Kit detects and measures the hydroperoxides produced in the lipoxygenation reaction using a purified LOX. The detection reaction is equally sensitive to hydroperoxides at various positions within the fatty acid and will work with fatty acids of any carbon length. It is thus a general detection method for 5-LOX and can be used to screen libraries of compounds for those which inhibit 5 -LOX enzymes.
1) Blank Wells- add 100 µL of assay buffer to at least two wells.
2) Positive Control Wells- Lipoxygenase (15-LO standard) add 90 µL 15-LO and 10 µL of assay buffer […]
3) 100% Initial Activity Wells- add 90 µL 15-LO and 10 µL of solvent (DMSO) (the same solvent to dissolve the inhibitor) to two wells. The 100% initial activity wells should result in approximately 10 […]
4) Inhibitor Wells- add 90 µL of sample and I10 µL of inhibitor to two wells.
5) Initiate the reaction by adding 10 µL of substrate (either arachidonic acid or linoleic acid) to all the wells. Place the 96-well plate on a shaker for at least five minutes.
6) Add 100 µL of chromogen to each well to stop enzyme catalysis and develop the reaction. Cover with a plate cover and place the 96-well plate on a shaker for at least five minutes.
7) Remove the cover and read the absorbance at 490-500 nm using a plate reader.
Inhibitors were dissolved in DMSO. The inhibitors were added to the assay in a final volume of 10 µL before initiating with substrate. Three concentrations were prepared (25, 50 and 100 µM) to determine the concentration produced 50% enzyme inhibition.
2) The absorbance of blank wells was subtracted from absorbance of the 100% Initial activity and the […]

[1] = system: formalin-induced rat paw oedema; experiment: Formalin-induced paw oedema test (acute inflammation model); assay type: in vivo; conditions: for Volume of oedema (ml) 4h: 4 h after formalin; for Volume of oedema (ml) 4h / inhibition in vivo at 5 mg/kg / % Relative potency (4h) celecoxib / % Relative potency (4h) diclofenac / Volume of oedema (ml) 0: individual rats 1-3; for Volume of oedema (ml) 4h / inhibition in vivo at 5 mg/kg / % inhibition of paw oedema compared with reference drugs (in words) / Volume of oedema (ml) 0: 5 mg/kg orally; for inhibition in vivo at 5 mg/kg: Rattus norvegicus, po, read-out: % Inhibition of oedema volume; for inhibition in vivo at 5 mg/kg / % inhibition of paw oedema compared with reference drugs (in words): 4 h; for % Relative potency (4h) celecoxib, Mean ± SD / % Relative potency (4h) celecoxib: relative to % inhibition of celecoxib at 4 h; for % Relative potency (4h) celecoxib, Mean ± SD / % Relative potency (4h) diclofenac, Mean ± SD: group mean ± SD; for % Relative potency (4h) diclofenac, Mean ± SD / % Relative potency (4h) diclofenac: relative to % inhibition of diclofenac at 4 h; for % inhibition of paw oedema compared with reference drugs (in words): comparison with celecoxib or diclofenac sodium
Experimental: Animals Adult female albino rats weighing 150-250 g were used (Experimental Animal Centre in Alexandria University). All animals accessed to food and water ad libitum and were housed in 12 h dark/light cycle in a controlled condition at 23-250C. They were allowed to acclimatize for 1 week prior to experimentation. Procedures involving animals and their care were conducted in conformity with the Guide for the Care and Use of Laboratory Animals published by US National Institute of Health4 (NIH publication No. 83-23, revised) and following the ethical guidelines of Alexandria University on laboratory animals. In all tests, adequate considerations were adopted to reduce pain or discomfort of animals (Approved by AlexU-IACUC) 3. […]
Formalin-induced paw edema test (acute inflammation model):
A solution of freshly prepared formalin 5% was used as a phlogistic agent. A mark was made on the lateral malleolus of the rats’ paws delineating the injection sites. The initial volume of paw was measured by means of digital calibrated Vernier caliper .
After 45 minutes, 40 μl formalin were injected subcutaneously into the sub plantar tissue of the right hind paw of all groups under light ether anesthesia . An equal volume of saline was injected into the left hind paw and served as internal control for the degree of inflammation in the right hind paw. 5, 6 The volume of paw was measured in different treatment groups, 4 h following the formalin injection and the amount of increase in paw volume (edema volume) was calculated by subtracting the volumes before and 4 h after the injection of formalin. Edema was expressed as an increase in the volume of paw, and the percentage of edema inhibition (or percent protection against inflammation) for each rat and each group was calculated according to the following equation: […]
Where Vt is the mean volume of edema at specific time interval (4 h) and Vo is the mean volume of edema […]
Relative potency of the tested compounds was expressed as % inhibition of edema for the tested compounds

gastric mucosa = experiment: In vivo gastric ulcerogenic activity (gross examination of gastric mucosa); conditions: fasted rats, 60 mg/kg orally, six hours after treatment, 60 mg/kg
Experimental: Compounds were evaluated for acute gastric ulcerogenic effect in adult female Wistar rats. Gross examination was performed for any evidence of hyperaemia, haemorrhage, definite haemorrhagic erosion, or ulcer according to reported procedures[49]^,[51]
Compounds were evaluated for acute gastric ulcerogenic effect in adult female Wistar rats. Rats (150–250 g)
were divided into groups of six rats each and test compounds, references or DMSO as control were
administered orally at a dose of 60 mg/kg body weight (three times the previously used dose). Six hours after
the treatment they were sacrificed under deep ether anesthesia and their stomachs were removed and opened
through greater curvature, washed under running water and fixed in saline solution. Gross examination was
performed for any evidence of hyperemia, hemorrhage, definite hemorrhagic erosion or ulcer 6, 7 (Approved
The degree of ulcerogenicity was determined by viewing the gastric epithelial ulceration using a 5x
magnifying lens and rated by ulcer score.
Ulcer score was used to grade the incidence and severity of the lesions such as:
1) Shedding of epithelium—10
2) Petechial and frank hemorrhages—20
4) More than two ulcers—40

| SMILES | IC50 (COX-1) [µM] | IC50 (5-LOX) [µM] | Volume of oedema (ml) 4h ([1]; 5 mg/kg) [mL] | inhibition in vivo at 5 mg/kg [1] [%] | % Relative potency (4h) celecoxib, Mean ± SD [1] [%] | % Relative potency (4h) celecoxib [1] | % Relative potency (4h) diclofenac, Mean ± SD [1] [%] | % Relative potency (4h) diclofenac [1] | melting point [°C] | Gross appearance of gastric mucosa (ulcerogenic potential) (gastric mucosa) | % inhibition of paw oedema compared with reference drugs (in words) ([1]; 5 mg/kg) | Volume of oedema (ml) 0 ([1]; 5 mg/kg) [mL] | % inhibition of paw oedema compared with reference drugs (in words) [1] |
| --- | --- | --- | --- | --- | --- | --- | --- | --- | --- | --- | --- | --- | --- |
| COc1ccc(-c2cc(C(=O)NN=Cc3c(C)ccc(C(C)C)c3O)[nH]n2)cc1 [Compound 4c, N'-(2-Hydroxy-3-isopropyl-6-methylbenzylidene)-3–(4-methoxyphenyl)-1H-pyrazole-5-carbohydrazide] | 10.22 ± 0.046 | 2.91 ± 0.068 | 6.20 | 66.2 | 165.7 ± 20.01 | 188.50% and 151.20% and 157.30% | 115.6 ± 21.54 | 140.0% and 107.60% and 99.20% | 246 to 248 | variable degrees of hyperaemia; also recorded: Hyperemia without gross ulceration | – | – | – |
| Cc1ccc(C(C)C)c(O)c1C=NNC(=O)c1cc(-c2ccc(Br)cc2)n(-c2ccc(S(N)(=O)=O)cc2)n1 [Compound 8b, 4-(5-(4-Bromophenyl)-3-(2-(2-hydroxy-3-isopropyl-6-methylbenzylidene)hydrazine-1-carbonyl)-1H-pyrazol-1-yl)benzene sulphonamide] | 13.61 ± 0.096 | 1.58 ± 0.026 | – | 40.1 | – | 114.10% and 86.90% and 93.30% | 68.50 ± 14.20 | 84.80% and 61.90% and 58.80% | – | No gross ulceration | nearly equal activity to celecoxib; also recorded: slightly less % inhibition than that of Diclofenac sodium | 5.02 | – |
| COc1ccc(-c2cc(C(=O)NN=Cc3c(C)ccc(C(C)C)c3O)nn2-c2ccc(S(N)(=O)=O)cc2)cc1 [Compound 8c, 4-(3-(2-(2-Hydroxy-3-isopropyl-6-methylbenzylidene)hydrazine-1-carbonyl)-5-(4-methoxyphenyl)-1H-pyrazol-1-yl)benzenesulfonamide] | 12.87 ± 0.097 | 1.91 ± 0.053 | 5.80 | 60.4 | 170.0 ± 9.73 | 171.80% and 159.50% and 178.70% | 117.9 ± 8.39 | 127.60% and 113.60% and 112.60% | 245 to 247 | – | – | – | – |
| Cc1ccc(C(C)C)c(O)c1C=NNC(=O)c1cc(-c2ccccc2)n(-c2ccc(Cl)cc2)n1 [Compound 8g, 1-(4-Chlorophenyl)-N'-(2-hydroxy-3-isopropyl-6-methylbenzylidene)-5-phenyl-1H-pyrazole-3-carbohydrazide] | 12.1 ± 0.16 | 1.6 ± 0.042 | – | 52.7 | 148.6 ± 2.99 | 150.0% and 145.20% and 150.70% | 103.3 ± 8.20 | 111.40% and 103.40% and 95.0% | – | No gross ulceration | – | – | – |
| Cc1ccc(C(C)C)c(O)c1C=NNC(=O)c1cc(-c2ccc(Br)cc2)n(-c2ccc(Cl)cc2)n1 [Compound 8h, 5-(4-Bromophenyl)-1-(4-chlorophenyl)-N'-(2-hydroxy-3-isopropyl-6-methylbenzylidene)-1H-pyrazole-3-carbohydrazide] | 12.6 ± 1.36 | 1.97 ± 0.026 | – | 53.6 | 140.9 ± 20.93 | 152.60% and 116.70% and 153.30% | 97.67 ± 15.13 | 113.30% and 83.10% and 96.60% | – | variable degrees of hyperaemia; also recorded: Hyperemia without gross ulceration | – | 5.02 | slightly less % inhibition than that of Diclofenac sodium |
| COc1ccc(-c2cc(C(=O)NN=Cc3c(C)ccc(C(C)C)c3O)nn2-c2ccc(Cl)cc2)cc1 [Compound 8i, 5-(4-Methoxyphenyl)-1-(4-chlorophenyl)-N'-(2-hydroxy-3-isopropyl-6-methylbenzylidene)-1H-pyrazole-3-carbohydrazide] | 12.6 ± 0.46 | 2.78 ± 0.016 | – | 67.6 | – | 192.30% and 183.30% and 210.70% | 135.4 ± 6.60 | 142.90% and 130.50% and 132.80% | 218 to 220 | variable degrees of hyperaemia; also recorded: Hyperemia without gross ulceration | – | 5.30 | double % inhibition exhibited by Celecoxib |
